Test results from ChEMBL document CHEMBL5303304, “EUbOPEN Chemogenomics Library - IncuCyte” (2023).

How the values were obtained:
Format in all cases: toxicity, cell-based
[1] = system: U2OS; assay: Incucyte cell viability with U2OS; details: human, 10 µM, compound concentration 10 uM
[2] = system: HEK-293T; assay: Incucyte cell viability with HEK293T; details: human, 10 µM, compound concentration 10 uM
[3] = system: Fibroblast; assay: Incucyte cell viability with human fibroblast; details: 10 µM, compound concentration 10 uM
Note: unitless GR value; below 1 slowed growth and below 0 cell loss.

Structure (SMILES) | Growth Rate ([1]; 6 h, replicate number 2) | Growth Rate ([1]; 12 h, replicate number 2) | Growth Rate ([1]; 18 h, replicate number 1) | Growth Rate ([1]; 18 h, replicate number 2) | Growth Rate ([1]; 24 h, replicate number 1) | Growth Rate ([1]; 24 h, replicate number 2) | Growth Rate ([2]; 0 h, replicate number 1) | Growth Rate ([2]; 0 h, replicate number 2) | Growth Rate ([2]; 12 h, replicate number 1) | Growth Rate ([3]; 6 h, replicate number 2) | Growth Rate ([1]; 6 h, replicate number 1) | Growth Rate ([1]; 12 h, replicate number 1) | Growth Rate ([2]; 6 h, replicate number 2) | Growth Rate ([2]; 12 h, replicate number 2) | Growth Rate ([3]; 12 h, replicate number 2) | Growth Rate ([3]; 18 h, replicate number 2) | Growth Rate ([3]; 24 h, replicate number 2) | Growth Rate ([2]; 18 h, replicate number 2) | Growth Rate ([3]; 24 h, replicate number 1) | Growth Rate ([2]; 6 h, replicate number 1) | further results
C[S+]([O-])c1ccc(-c2nc(-c3cccc(I)c3)c(-c3ccncc3)[nH]2)cc1 (stereo unspecified) | 0.79 | 0.8 | 0.97 | 0.75 | 1 | 0.65 | -0.57 | -1 | 0.87 | 0.66 | – | – | – | – | – | – | – | – | – | – | Growth Rate ([1]; 0 h, replicate number 1): -0.99; Growth Rate ([2]; 18 h, replicate number 1): 0.99; Growth Rate ([2]; 24 h, replicate number 1): 0.99
COC(=O)c1sccc1S(=O)(=O)Nc1ccc(Nc2ccccc2)cc1OC | 0.91 | – | 0.81 | 0.9 | – | 0.82 | – | -0.92 | – | 0.48 | 0.61 | 0.91 | 0.93 | 0.77 | 0.47 | 0.95 | 0.74 | – | – | – | Growth Rate ([1]; 0 h, replicate number 1): -0.11; Growth Rate ([3]; 0 h, replicate number 2): 0.71
O=C(/N=c1\sccn1Cc1ccccc1)c1c[nH]c2ncccc12 | – | – | – | – | – | – | -0.78 | -0.86 | – | – | – | – | – | – | – | – | – | – | – | – | Growth Rate ([1]; 0 h, replicate number 2): -0.96; Growth Rate ([3]; 6 h, replicate number 1): -1
C[C@@H]1C[C@H](C)CN(c2ncc(Cl)c(Nc3ccc4c(c3)cc(OC(C)(C)C(=O)O)c(=O)n4C)n2)C1 | -0.32 | 0.42 | – | 0.57 | 0.78 | 0.72 | 0.98 | 0.84 | – | – | 0.72 | – | – | – | 0.53 | 0.8 | 0.99 | – | – | – | Growth Rate ([1]; 0 h, replicate number 1): 0.85; Growth Rate ([1]; 0 h, replicate number 2): -0.87
O=C(CNCc1cc2ccccc2[nH]1)N[C@H]1CC[C@@H](c2nc3ccccc3[nH]2)CC1 | 1 | – | 0.82 | – | 0.8 | – | -0.1 | -0.87 | – | 0.7 | 0.65 | 0.55 | 0.27 | 0.76 | 0.69 | – | – | 0.77 | 0.78 | – | Growth Rate ([1]; 0 h, replicate number 1): -0.05; Growth Rate ([2]; 24 h, replicate number 2): 0.89; Growth Rate ([3]; 0 h, replicate number 2): 0.8; Growth Rate ([3]; 6 h, replicate number 1): 0.9; Growth Rate ([3]; 12 h, replicate number 1): 0.79; Growth Rate ([3]; 18 h, replicate number 1): 0.78
Cl.Cl.O=[N+]([O-])c1ccc(CN2CCOCCOCCN(Cc3ccc([N+](=O)[O-])cc3)CCOCC2)cc1 | 0.19 | 0.21 | 0.69 | 0.56 | 0.67 | 0.76 | – | – | 0.04 | -0.71 | -0.05 | 0.28 | -0.29 | 0.2 | 0.3 | 0.63 | 0.84 | 0.39 | -0.06 | -0.5 | Growth Rate ([2]; 18 h, replicate number 1): 0.13; Growth Rate ([2]; 24 h, replicate number 1): 0.2; Growth Rate ([2]; 24 h, replicate number 2): 0.52; Growth Rate ([3]; 0 h, replicate number 1): 0.74; Growth Rate ([3]; 12 h, replicate number 1): -0.95; Growth Rate ([3]; 18 h, replicate number 1): -0.4
Oc1c(CN2CCCC2)cc(COCc2ccccc2)c2cccnc12 | 0.91 | 0.58 | 0.93 | 0.56 | 0.79 | 0.54 | – | -0.99 | -0.04 | – | 0.93 | 0.55 | 0.05 | -0.05 | – | – | 0.6 | -0.21 | 0.83 | 0.34 | Growth Rate ([1]; 0 h, replicate number 1): 0.25; Growth Rate ([2]; 18 h, replicate number 1): -0.09; Growth Rate ([2]; 24 h, replicate number 1): -0.18; Growth Rate ([2]; 24 h, replicate number 2): -0.25; Growth Rate ([3]; 0 h, replicate number 1): 0.87; Growth Rate ([3]; 18 h, replicate number 1): 0.96
O=C(Nc1c(-c2cccs2)nc2ccc(Cl)cn12)c1ccc(Cl)cc1 | 0.69 | 0.81 | 0.95 | 0.75 | 0.97 | 0.56 | – | – | – | -1 | 0.3 | 0.64 | – | – | – | – | – | – | – | 0.88 | Growth Rate ([3]; 0 h, replicate number 1): 0.89; Growth Rate ([3]; 12 h, replicate number 1): -1; Growth Rate ([3]; 18 h, replicate number 1): 0.47
O=c1cccc2n1C[C@@H]1CNC[C@H]2C1 [CYTISINICLINE] | – | 0.94 | 0.97 | 0.99 | 0.99 | – | – | – | 0.46 | -0.4 | – | 0.79 | 0.9 | 0.75 | 0.99 | 0.88 | 0.81 | 0.92 | 0.51 | – | Growth Rate ([2]; 18 h, replicate number 1): 0.79; Growth Rate ([2]; 24 h, replicate number 1): 0.88; Growth Rate ([2]; 24 h, replicate number 2): 0.99; Growth Rate ([3]; 12 h, replicate number 1): -0.82
O=C(O)CCCc1cc2cc(Cl)ccc2n1S(=O)(=O)c1ccc2ncsc2c1 [LANIFIBRANOR] | – | – | – | – | – | – | 0.87 | -0.8 | – | 0.28 | – | 0.94 | 0.49 | 0.73 | 0.76 | – | – | 0.59 | – | 0.78 | Growth Rate ([2]; 24 h, replicate number 2): 0.63; Growth Rate ([3]; 0 h, replicate number 2): 0.65; Growth Rate ([3]; 6 h, replicate number 1): 0.58
O=C(Nc1ccc(-n2nc(-c3cccnc3)cc2C(F)(F)F)cn1)c1ccc(-c2ccccc2)c(F)c1 [BI 2049] | 0.46 | 0.84 | – | 0.93 | – | 0.97 | -0.8 | 0.47 | – | – | 0.83 | – | – | – | 0.85 | 0.98 | 0.91 | – | 0.99 | – | Growth Rate ([1]; 0 h, replicate number 2): -0.06
COc1cc(F)ccc1-c1ncnc(Nc2cccc(C[S@](C)(=N)=O)c2)n1 [ATUVECICLIB] | 0.22 | 0.18 | 0.11 | 0.07 | 0.03 | -0.05 | – | – | -0.37 | -0.07 | 0.72 | 0.33 | -0.61 | -0.56 | -0.33 | -0.2 | -0.14 | -0.44 | 0.09 | -0.48 | Growth Rate ([1]; 0 h, replicate number 2): 0.53; Growth Rate ([2]; 18 h, replicate number 1): -0.26; Growth Rate ([2]; 24 h, replicate number 1): -0.25; Growth Rate ([2]; 24 h, replicate number 2): -0.36; Growth Rate ([3]; 0 h, replicate number 1): -0.58; Growth Rate ([3]; 6 h, replicate number 1): -0.11; Growth Rate ([3]; 12 h, replicate number 1): -0.04; Growth Rate ([3]; 18 h, replicate number 1): -0.01
CCOC(=O)C1=C(C)NC(C)=C(C(=O)OC)C1c1cccc([N+](=O)[O-])c1 (stereo unspecified) [NITRENDIPINE] | 0.51 | 0.71 | – | 0.86 | 0.91 | 0.9 | – | – | – | – | 0.47 | 0.89 | -0.36 | 0.63 | – | – | 0.95 | 0.99 | – | 0.11 | Growth Rate ([1]; 0 h, replicate number 1): 0.22; Growth Rate ([1]; 0 h, replicate number 2): -0.99; Growth Rate ([2]; 24 h, replicate number 2): 0.95; Growth Rate ([3]; 0 h, replicate number 1): -0.46; Growth Rate ([3]; 0 h, replicate number 2): -0.98; Growth Rate ([3]; 18 h, replicate number 1): -0.02
c1ccc(C2CCN(c3cnc4c(N5CCOCC5)nccn34)CC2)cc1 | – | – | 0.9 | – | – | – | – | – | 0.94 | 0.96 | 0.91 | 0.92 | 0.9 | – | 0.56 | 0.64 | – | 0.99 | 1 | 0.74 | Growth Rate ([3]; 0 h, replicate number 1): -0.87
N[C@@H](Cn1cc(F)c(=O)[nH]c1=O)C(=O)O | 0.7 | 0.81 | – | 0.8 | – | 0.83 | 0.81 | – | 0.99 | – | – | – | 0.86 | – | – | 0.82 | 0.99 | – | 0.97 | 0.82 | Growth Rate ([1]; 0 h, replicate number 1): 0.45; Growth Rate ([2]; 24 h, replicate number 2): 0.96; Growth Rate ([3]; 12 h, replicate number 1): -0.98; Growth Rate ([3]; 18 h, replicate number 1): 0.16
CN[C@@H](C)C(=O)N[C@H]1CN(C(=O)CC(C)C)CC[C@H]2CC[C@@H](C(=O)NC(c3ccccc3)c3ccccc3)N2C1=O [XEVINAPANT] | – | – | – | – | – | – | 0.08 | – | 0.86 | 0.35 | – | – | – | – | 0.73 | 0.78 | 0.88 | 0.97 | 0.9 | 0.36 | Growth Rate ([1]; 0 h, replicate number 2): 0.1; Growth Rate ([2]; 18 h, replicate number 1): 0.71; Growth Rate ([2]; 24 h, replicate number 1): 0.92; Growth Rate ([3]; 0 h, replicate number 2): 0.68; Growth Rate ([3]; 6 h, replicate number 1): -0.46; Growth Rate ([3]; 12 h, replicate number 1): 0.68
